{"source": "a melting point compilation (Tetko et al.; mined from patent text by program, amines drawn as free bases though some values may be those of a salt)"}
{"units": {"melting point": "°C"}}
{"smiles": "CCN(CC)CCOC(=O)c1cc2cc(Br)ccc2nn1", "melting point": "90 to 93"}
{"smiles": "CCOCc1nc2c(N)nc3ccccc3c2n1CCCCC(N)=O", "melting point": "198 to 200"}
{"smiles": "COc1c(F)c(F)c(C(=O)c2ccc(Br)cc2)c(F)c1F", "melting point": "80 to 82"}
{"smiles": "Nc1ccc2[nH]c(C(=O)N3CCC(Cc4ccccc4)CC3)cc2c1", "melting point": "175 to 180"}
{"smiles": "Oc1nn(-c2ccccc2)cc1Cc1ccccc1", "melting point": "185 to 186"}
{"smiles": "CC1(C)OC(=C(C#N)C#N)C(C#N)=C1/C=C/c1ccc(N)cc1", "melting point": 360}
{"smiles": "COc1cc(C(=O)O)ccc1Cn1cnc2ccc(NC(=O)OC3CCCC3)cc21", "melting point": "241 to 242"}
{"smiles": "Cc1cccc(-c2nc(C(C)C)[nH]c2-c2ccc(F)c(-c3ccc(CC4CNCCO4)cc3)c2)n1", "note": "(stereo not drawn)", "melting point": "147 to 161"}
{"smiles": "O=C1C(=O)c2ccccc2C2=C1SCC1(CCN(C(=O)c3ccccc3I)CC1)O2", "melting point": "165 to 166"}
{"smiles": "O=C(O)CCC(=O)c1ccc(CCNS(=O)(=O)CCc2ccc(Cl)cc2)cc1", "melting point": 112}
{"smiles": "COC(=O)CC[C@H](NC(=O)c1ccc(CCn2cnc3nccc-3c2NO)cc1)C(=O)OC", "melting point": "170 to 172"}
{"smiles": "O=C(Nc1ccc(CN2C(=O)[C@H]3CCC[C@H]3Nc3ccccc32)cc1)Oc1ccccc1", "note": "(relative stereo)", "melting point": "183 to 184"}
{"smiles": "Cc1ccc(S(=O)(=O)Oc2ccc(S(=O)(=O)c3c(-c4ccccc4)cn4ccccc34)cc2)cc1", "melting point": 168}
{"smiles": "O=C(NO)c1ccc(C(=O)NC/C=C/c2ccccc2)cc1", "melting point": "169 to 170"}
{"smiles": "CCCCCCCCOC(=O)c1nc(Cl)c(Cl)nc1N", "melting point": 85}
{"smiles": "CC(=O)OC(CS(=O)(=O)CC(OC(C)=O)c1ccc(N)cc1)c1ccc(N)cc1", "note": "(stereo not drawn)", "melting point": "92 to 93"}
{"smiles": "COc1cc2onc(-c3ccccc3F)c2cc1Cl", "melting point": "165 to 166"}
{"smiles": "COC(=O)COc1ccc(-c2c3ccccc3cc3sc4cc(OCC(=O)OC)ccc4c23)cc1", "melting point": "152 to 154"}
{"smiles": "S=c1[nH]c2ccc(-c3cccc(Cl)c3)cc2n1Cc1ccccc1", "melting point": "211 to 212"}
{"smiles": "Cc1cccc(C)c1N1CC(C)N(c2c(C)cccc2C)C1=N", "note": "(single isomer, unassigned; (+))", "melting point": "99 to 101"}
{"smiles": "CCOC(=O)C(C)NC(=O)N(N(CCCl)S(C)(=O)=O)S(C)(=O)=O", "note": "(stereo not drawn)", "melting point": "111 to 112"}
{"smiles": "Cc1cccc(-c2nc(C(C)C)[nH]c2-c2cccc(-c3ccc(S(N)(=O)=O)cc3)c2)n1", "melting point": "255 to 258"}
{"smiles": "Oc1cc(Cl)c(Br)c(Cl)c1", "melting point": "118 to 120"}
{"smiles": "CN(c1ccc(CC(=O)O)cc1)c1cc(C(C)(C)C)c(O)c(C(C)(C)C)c1", "melting point": "181 to 182"}
{"smiles": "CCOC(=O)Cc1nc2cc(Cl)ccc2o1", "melting point": "90 to 91"}
{"smiles": "Cc1c(SCCCSc2nc3ccccc3[nH]2)ccnc1CSc1ccncc1", "melting point": "128 to 129"}
{"smiles": "CN(C)c1cc(=S)ss1", "melting point": 193}
{"smiles": "CC(C)(C)OC(=O)[C@H](CC(=O)c1ccc2oc3ccccc3c2c1)NC(=O)C(F)(F)F", "melting point": "92 to 94"}
{"smiles": "O=[N+]([O-])c1c(Br)nn(Cc2ccccc2)c1NCCO", "melting point": "110 to 112"}
{"smiles": "COc1ccccc1-n1c(=O)[nH]c2c(C(N)=O)nc(-c3ccc4nc(C(F)(F)F)[nH]c4c3)nc21", "melting point": "220 to 222"}
{"smiles": "O=c1cnn(-c2cc(Cl)c(Cc3ccc(Cl)cc3)c(Cl)c2)c(=O)[nH]1", "melting point": "175 to 176"}
{"smiles": "COc1cc(-n2nc(C#N)cc2-c2ccc(S(C)(=O)=O)cc2)ccc1Cl", "melting point": "203 to 205"}
{"smiles": "CCOC(=O)C(=O)c1ccc(OCCCCCCc2cccc(OCc3ccccc3)c2OCc2ccccc2)cc1", "melting point": "39 to 42"}
{"smiles": "C[C@@H]1S[C@@H](C(=O)Nc2ccc(CN3CCOCC3)cc2)Cc2cc3c(cc2C1=O)OCO3", "melting point": "172 to 174"}
{"smiles": "COc1ccc(S(=O)(=O)Nc2ccc(Cl)c(OCCN(C)C)c2)cc1OC", "melting point": "103 to 106"}
{"smiles": "O=C(NCC1CC(=O)N(Cc2ccccc2)C1)Nc1ccc(Cl)cc1", "note": "(stereo not drawn)", "melting point": "139 to 140"}
{"smiles": "O=S(=O)(Nc1ccc2c(OCc3ccc(-c4ccccc4)cc3Cl)cccc2c1)C(F)(F)F", "melting point": "131 to 134"}
{"smiles": "COC(=O)C(NC(=O)c1ccccc1)c1ccc(-c2ccc(S)cc2)cc1", "note": "(stereo not drawn)", "melting point": "150 to 152"}
{"smiles": "COc1cc2nc(SCc3ncc(C)c(N(C)C)c3Cl)[nH]c2cc1OC", "melting point": "120 to 122"}
{"smiles": "CS(=O)(=O)Oc1ccc(CCOc2ccc(-c3ncccc3C(=O)O)cc2C#N)cc1", "melting point": "85 to 86"}
{"smiles": "CCOC(=O)C1CC2=C(CO1)C(=O)c1cc3ccccc3c(OC(C)=O)c1C2=O", "note": "(stereo not drawn)", "melting point": "196 to 198"}
{"smiles": "COc1ccc(NC(=O)CCCn2nnnc2C)cc1", "melting point": "132 to 134"}
{"smiles": "CCc1cc(S(=O)(=O)C(Br)(Br)Br)ccc1C(N)=O", "melting point": "175 to 177"}
{"smiles": "O=C(O)C(Oc1ccc(Cl)cc1)(C(F)(F)F)C(F)(F)F", "melting point": "81 to 83"}
{"smiles": "O=C1c2c(O)cncc2C(=O)c2c(Cl)ccc(F)c21", "melting point": "227 to 228"}
{"smiles": "O=S(=O)(Nc1cccc(Cl)c1)c1ccc(Nc2nc(OCC3CCCCC3)c3nc[nH]c3n2)cc1", "melting point": "248 to 249"}
{"smiles": "CCNc1cc(C)nn1-c1c(Cl)cc(C(F)(F)F)cc1Cl", "melting point": "74 to 75"}
{"smiles": "C=CCCCn1ncc2c(N)c(C(=O)OCC=C)c(C)nc21", "melting point": "62 to 62.5"}
{"smiles": "CC1Cn2c(nc3c(cnn3C)c2=O)S1", "note": "(stereo not drawn)", "melting point": "178 to 179"}
{"smiles": "CCCCOc1ncc(C(C)=O)cc1-c1nn2c(CC)nc(CN3CCOCC3)c2c(=O)[nH]1", "melting point": "145 to 149"}
{"smiles": "Cc1nc(-c2ccc(SC(C)C)c([N+](=O)[O-])c2)sc1C(=O)O", "melting point": "233 to 235"}
{"smiles": "COc1ccc(CN(CCN(C)C)c2cccc(/C=C/C(=O)O)n2)cc1", "melting point": "75 to 81"}
{"smiles": "COc1ccc([N+](=O)[O-])cc1CN1CCC(=O)C(C(c2ccccc2)c2ccccc2)C1", "note": "(stereo not drawn)", "melting point": "119 to 120"}
{"smiles": "N=C(NCc1cccnc1)N[N+](=O)[O-]", "melting point": "185 to 190"}
{"smiles": "CC1=C(N)C(C)C2CC(C)(CN3CCN(c4ccc(-n5ccnc5)cc4)CC3)OC2=C1C", "note": "(stereo not drawn)", "melting point": "165 to 167"}
{"smiles": "CCC1(c2cccs2)OCC(=O)Nc2ccc(-c3sc(C#N)cc3C)cc21", "note": "(stereo not drawn)", "melting point": "182 to 184"}
{"smiles": "CCOCn1c(-c2cc(F)cc(F)c2)c(C#N)c(Br)c1C(F)(F)F", "melting point": "74 to 75"}
{"smiles": "CC(C)Nc1cccnc1N1CCN(C(=O)c2ccc(C(=O)N(C(C)C)C(C)C)cc2)CC1", "melting point": "152 to 153"}
{"smiles": "CNC(=S)NS(=O)(=O)c1cc(CCNC(=O)/C=C/c2cccs2)ccc1OCCc1ccccc1", "melting point": 74}
{"smiles": "COCOc1ccccc1-c1cc(-c2ccc(C(=O)O)cc2)c(C#N)c(NC(=O)c2cccs2)n1", "melting point": "205 to 206"}
{"smiles": "C=Cc1ccc(S(=O)(=O)Nc2ncnc(Cl)c2Cc2c(OC)cccc2OC)cc1", "melting point": "197 to 198"}
{"smiles": "CCCc1nc(N2CCc3ccccc3CC2)c(C#N)c(=O)n1CC(F)(F)F", "melting point": "104 to 106"}
{"smiles": "N#Cc1ccc(-c2ccc(C(=O)O)s2)cc1", "melting point": "> 300"}
{"smiles": "OCCC12CC(c3ccccc31)c1ccccc12", "melting point": "99 to 100"}
{"smiles": "CC1(C)c2cc(C(=O)O)ccc2Oc2ncccc21", "melting point": "241 to 242"}
{"smiles": "COc1ccc(Cc2sc3ccccc3c2-c2ccc(-c3ccc(OC(Cc4ccccc4)C(=O)O)cc3)cc2)c(OC)c1", "note": "(stereo not drawn)", "melting point": "70 to 72"}
{"smiles": "Cc1ccc(Nc2nc(Cl)nc(NC3CCCCCC3)n2)cc1F", "melting point": 149}
{"smiles": "COc1ccc(S(=O)(=O)n2c(CCCC(=O)O)cc3nc(Cl)ccc32)c(C)c1", "melting point": "134 to 140"}
